This experiment concerns the target T1, bovine serum albumin (BSA) (Bos taurus, UniProt P02769).
T1 construct: gene ALB; BSA fraction V (Sigma), 583 amino acid residues
Nature of the experiment: intrinsic fluorescence quenching titration (static; Kb at […] K, pH […], n = […]), supported by UV-vis, CD and FRET. Conditions: read-out: Kb (10^6 M^-1) (converted). Type of experiment: binding.

Structures are written as SMILES.

T1 sequence (P02769 25-607): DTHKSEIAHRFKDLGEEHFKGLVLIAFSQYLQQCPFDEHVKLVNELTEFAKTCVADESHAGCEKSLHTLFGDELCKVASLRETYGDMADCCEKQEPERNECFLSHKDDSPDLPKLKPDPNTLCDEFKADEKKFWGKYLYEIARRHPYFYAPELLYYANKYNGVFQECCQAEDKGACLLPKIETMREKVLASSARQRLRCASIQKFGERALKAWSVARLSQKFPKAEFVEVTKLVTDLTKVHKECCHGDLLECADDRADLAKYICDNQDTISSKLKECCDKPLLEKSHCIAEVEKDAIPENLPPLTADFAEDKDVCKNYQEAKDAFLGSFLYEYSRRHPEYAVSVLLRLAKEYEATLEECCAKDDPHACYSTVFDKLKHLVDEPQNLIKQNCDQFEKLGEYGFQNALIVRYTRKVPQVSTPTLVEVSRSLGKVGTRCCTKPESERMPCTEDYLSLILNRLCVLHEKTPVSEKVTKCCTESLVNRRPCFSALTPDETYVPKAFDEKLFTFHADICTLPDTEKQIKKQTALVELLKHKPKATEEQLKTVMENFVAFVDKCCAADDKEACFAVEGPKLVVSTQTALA

On to `COc1ccc(-c2cc(=O)c3c(O)c(OC)c(OC)cc3o2)cc1O` [eupatorin], for which the Kd was 0.813 µM.

Source of the values: publication PMC3742238, “Characterization of the Interaction between Eupatorin and Bovine Serum Albumin by Spectroscopic and Molecular Modeling Methods” (International Journal of Molecular Sciences, 2013).
